In US20080207724A1, “Use of Inhibitors of Histone Deacteylases in Combination With Compounds Acting as Nsaid for the Therapy of Human Diseases” (priority 2005, published 2008):

Tests used:
[1] = system: collagen induced arthritis in DBA/1 mice; experiment: Therapeutic collagen induced arthritis (CIA) model, clinical severity score; assay type: in vivo; details: DBA/1 mice with CIA, 15 days; VPA 2×400 mg/kg/d i.p., G2M-707 2×1 mg/mouse/d i.p.; versus control group; FIG. 6 upper panel
Method: To evaluate this anti-inflammatory potency of HDAC inhibitors in a therapeutic in vivo inflammation model we applied VPA and G2M-707 to mice that had developed collagen induced arthritis (CIA).
Prednisolon, a corticosteroid drug in clinical use for RA, was used as a positive control in this study.
In detail, in this therapeutic CIA model, DBA/1 female mice of age 7 weeks were immunized with 100 μg of chicken type II collagen (Chondrex) in CFA. Development of arthritis started 21 to 28 days after immunization and reached an incidence of 93% after 6 weeks. The severity was medium to high and reached a mean score of 10.3 (maximum score 15) in untreated animals. The mice were monitored daily for signs of arthritis using an established scoring system. At the first sign of arthritis, the affected mice were assigned to a treatment group. The mice were treated for 15 days with vehicle control or VPA at 2×400 mg/kg/d i.p. or G2M-707 at 2×1 mg/mouse/d i.p. or Prednisolon at 2×20 mg/kg/d (i.p.). Clinical severity of arthritis was assessed based on the appearance of each paw and subjectively graded on a scale of 0 to 4. The scores of each limb were summed, giving a maximum severity score of 16. […] After onset of disease the animals were scored 3 times a week.

[2] = system: MDA-MB-231 mammary carcinoma cells; experiment: Prostaglandin secretion, Celecoxib plus HDAC inhibitor, MDA-MB-231 cells; assay type: cell-based, human; details: in combination with Celecoxib, FIG. 4
Method: (§1) In detail, cells were seeded at a density of 7,5×10^4 per well in 24 well plates. Supernatants were analyzed in a dilution of 1:3 in duplicates with the prostaglandin E2 EIA Kit from Cayman according to the manufacture's instructions. Bars show the mean of two values. Cell extracts were prepared by removing growth medium completely and adding of 200 μl of Laemmli Sample buffer per well. Subsequently, 60 μl were loaded on 8% acrylamide gels and subjected to discontinuous electrophoresis.

prostaglandin E2 = experiment: Prostaglandin levels in liver extracts of APCmin mice (ex vivo cyclooxygenase activity); parameters: species or system mouse; details: liver taken 3 hours after final dose, same treatment as adenoma study, FIG. 5b
Method: (§2) Control animals were injected (i.p.) with PBS. […] At sacrifice entire intestinal tracts were opened longitudinally and fixed in 10% phosphate buffered formaldehyde for 24 hours followed by ethanol-fixation in 50% ethanol for three days. […] Cyclooxygenase activity was assessed ex vivo in hepatic tissue as described (Reuter et al., 2002; BMC Cancer 2:19). Briefly, mice were euthanized 3 hours following the final dose of vehicle or drugs and a sample of liver tissue (−100 mg) was obtained. The samples were then placed into microcentrifuge tubes containing 1 ml of sodium phosphate buffer (10 mM, pH 7.4) and finely minced with scissors for 15 seconds. Samples were then incubated for 20 min at […] in a shaking water bath. After the incubation period, samples were centrifuged at 9000×g for 30 seconds and the supernatants collected. Supernatants were flash frozen in liquid nitrogen and stored at […] for subsequent determination of prostaglandin E2 content. PGE2 concentrations were determined in duplicates after 1:20 dilution of supernatants using a commercially available competitive Enzyme Immunoassay (Cayman Chemical).

Cox-2 [3] = experiment: Cox-2 expression (Western blot / RT-PCR) in various cell types; assay type: cell-based, human; details: for Expression of Cox-2 on RNA and protein level: several systems: A-549, SK-Mel, HT-29, MDA-MB-231, THP-1, primary human lymphocytes and macrophages, FIGS. 1 and 2
Method: In HT-29 colon carcinoma cells Cox-2 expression was induced by treatment with 100 ng/ml TNF-α for 4 h.
Cells were seeded at densities between 5×10^4 and 1×10^5 cells per well of 24 well plates. Lysis was done by removing growth medium and adding 200 μl of Laemmli sample buffer per well. 60 μl were loaded on 8% acrylamide gels and subjected to discontinuous electrophoresis. Proteins blotted onto PVDF membranes were probed with a goat-anti-Cox-2 antibody (St. Cruz, sc1747) or a mouse anti-pan-actin antibody (Ab-5, NeoMarkers).
as §1

COX-2 RNA = experiment: Semi quantitative RT-PCR of COX-2 RNA in LPS-induced THP-1 cells; assay type: cell-based, human; details: THP-1 cells differentiated with TPA; 1 mM VPA or 10 μM G2M-707 over night, then 10 μg/ml LPS 6 h; FIG. 1A
Method: (§3) THP-1 cells were induced to differentiate by addition of 20 ng/ml TPA to the growth medium for 3d. Adherent cells were seeded at a density of 5×10^5 cells per well of a 6-well plate, and were incubated with 1 mM VPA or 10 μM G2M-707 over night (FIG. 1A). Cox-2 expression was then induced by addition of 10 μg/ml LPS for 6 h. RNA was prepared using the RNeasy Kit from Qiagen according to the manufacturer's instructions. Reverse transcription was done with 1 μg of RNA in a volume of 20 μl. 1 μl was used for each PCR reaction with specific primers for the indicated genes.

TNF-α, IFN-γ and IL-6 = experiment: Semi quantitative RT-PCR of cytokine RNA in LPS-induced THP-1 cells; assay type: cell-based, human; details: THP-1 cells differentiated with TPA; 1 mM VPA or 10 μM G2M-707 over night, then 10 μg/ml LPS 6 h; FIG. 1A
Method: as §3

Cox-2 [4] = experiment: Semi quantitative RT-PCR of Cox-2 in peripheral blood lymphocytes of VPA-treated patients; assay type: in vivo, human; details: patients treated with 30 mg/kg/d or 120 mg/kg/d VPA; control gene GAPDH unchanged; FIG. 1B
Method: Semi quantitative RT-PCR was also performed with RNA isolated form peripheral blood lymphocytes of patients treated with doses 30 mg/kg/d (Patient 1) or 120 mg/kg/d VPA (Patient 2) respectively.

TNF-α = experiment: Acute LPS-induced inflammation model, serum TNF-α ELISA; assay type: in vivo; details: 3H1 mice; i.p. 1 h before LPS (50 μg per mouse); blood 1 h after LPS; VPA 400 mg/kg/d, G2M-707 1 mg/mouse/d; FIG. 6 lower panel
Method: To evaluate the ability of HDAC inhibitors to inhibit soluble TNF-α secretion in vivo, an acute LPS-induced inflammation model in 3H1 mice was used. The mice were injected i.p. with substances tested 1 h before the i.p. injection of LPS. Blood samples were drawn 1 h after LPS stimulus and the TNF-α levels in the serum were determined using a TNF-α ELISA assay. As shown in FIG. 6 (lower panel), VPA and G2M-707 pretreatment led to a 60% reduction in absolute TNF-α serum levels in comparison to the control mice.
In detail, mice were treated with VPA (400 mg/kg/d, n=8), G2M-701 (1 mg/mouse/d, n=4), G2M-707 (1 mg/mouse/d, n=4) or with 200 μl PBS (control, n=8) 1 h before inflammation was induced with 50 μg LPS (Sigma) per mouse. One hour after the LPS treatment, blood was taken by cardiac puncture and serum was isolated. The serum was tested in a TNF-α sandwich ELISA module from Bender MedSystems. The assay was performed as described in the manufacturer's manual. ABTS was used as a substrate and measuring was accomplished with a 96-well plate reader at a wavelength of 405 nm. Absolute OD levels at 405 nm are given.

[5] = system: adenomas in C57BL/6J-APCmin/+ mice; experiment: Adenoma number in the APCmin mouse model; assay type: in vivo; details: four weeks, VPA sodium salt 2×400 mg/kg/day i.p., Celecoxib 1250 ppm in diet, combination same dosages, FIG. 5A
Method: as §2

THP-1 monocytes = experiment: Prostaglandin secretion, Celecoxib plus HDAC inhibitor, THP-1 monocytes; assay type: cell-based, human; details: in combination with Celecoxib, FIG. 4
Method: In parallel, Cox-2 protein levels were reduced as already described.
as §1, with “electrophoresis. Proteins blotted onto PVDF membranes which were probed with a goat anti-Cox-2 antibody (St. Cruz, scl 747) or a mouse anti-pan-actin (to analyze the expression of this control protein) antibody (Ab-5, NeoMarkers).” for “electrophoresis.”

Structure (SMILES)	clinical severity scores (sum score) [1]	repression of prostaglandin secretion by Celecoxib, HDAC inhibitor added [2]	prostaglandin levels in liver extracts (prostaglandin E2)	Cox-2 protein levels (Cox-2 [3]; MDA-MB-231 cells, VPA together with Celecoxib, FIG. 4)	Expression of Cox-2 on RNA and protein level (Cox-2 [3])	COX-2 RNA (COX-2 RNA)	TNF-α, IFN-γ and IL-6 RNA (TNF-α, IFN-γ and IL-6)	Cox-2 RNA in peripheral blood lymphocytes of patients (Cox-2 [4])	reduction in absolute TNF-α serum levels in comparison to the control mice (TNF-α)	number of adenomas [5]	prostaglandin levels, HDAC inhibitor added to Celecoxib (THP-1 monocytes)
CCCC(CCC)C(=O)O [VPA, 2-propyl-pentanoic acid]	efficiently reduced	dose dependently enhance	decrease	reduced	downregulated	downregulation	downregulation	downregulation	60%	significantly reduces	
CC(/C=C/C(=O)NO)=C\[C@@H](C)C(=O)c1ccc(N(C)C)cc1 [TSA, Trichostatin A]					downregulated						reduce the prostaglandin levels further
